Reference: patent publication US8420642B2, “Pyridine derivatives useful as glucokinase activators” (Merck Patent GmbH, priority 2007, dated 2013)

Experiments:
[1] = molecular target: T1, glucokinase (GK), human enzyme (Homo sapiens, UniProt P35557); test: Glucokinase Activation Screening Assay (coupled enzyme assay with PK/LDH, NADH decline at 340 nm); assay type: biochemical; settings: for fold activation (human): relative to control incubation with 2 mM glucose; for EC50: 2 mM glucose
T1 sequence (P35557 1-465): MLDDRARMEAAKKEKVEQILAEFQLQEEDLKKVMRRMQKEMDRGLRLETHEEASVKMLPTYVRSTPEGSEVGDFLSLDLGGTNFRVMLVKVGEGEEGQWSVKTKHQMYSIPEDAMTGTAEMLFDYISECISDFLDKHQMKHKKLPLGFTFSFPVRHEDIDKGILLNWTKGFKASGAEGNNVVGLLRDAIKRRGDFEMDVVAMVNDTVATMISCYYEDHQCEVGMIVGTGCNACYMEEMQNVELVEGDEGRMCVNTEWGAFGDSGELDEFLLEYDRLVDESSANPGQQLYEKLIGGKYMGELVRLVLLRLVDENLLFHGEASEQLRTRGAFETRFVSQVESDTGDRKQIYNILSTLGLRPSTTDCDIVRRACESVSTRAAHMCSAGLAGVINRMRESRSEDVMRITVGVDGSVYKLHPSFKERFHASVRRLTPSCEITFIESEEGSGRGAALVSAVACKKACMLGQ
Procedure: Glucokinase Activation Screening Assay
GK activity (human or rat enzyme) is measured by an coupled enzyme assay using pyruvate kinase (PK) and lactate dehydrogenase (LDH) as coupling enzymes. GK activity is calculated from the decline in NADH monitored photometrically with a microtiter plate (MTP) reader at 340 nm. For screening purposes, the GK assay is routinely run in a 384-MTP format, in a total volume of 33 μl/well. 10 μl of the ATP-regeneration solution (in HEPES-buffer*, pH 7.0, 6.73 U/ml pyruvate kinase, 6.8 U/ml lactate dehydrogenase) and 10 μl of the glucokinase-/glucose solution (15 μg/ml, 6.6 mM glucose in HEPES-buffer*, pH 7.0; the concentration of the glucose stock-solution was 660 mM in Millipore H2O) were mixed together with 3 μl of a 10% DMSO solution (in HEPES-buffer*, pH 7.0) containing 3.3-fold the amounts of the compounds to achieve final compound concentrations in the range between 1 nM to 30 μM (sometimes 300 μM) in the assay solution (s. below). The solutions were mixed for 5 sec, and after a centrifugation at 243×g for 5 min, the solutions were preincubated for 25 min at room temperature.
The reaction was started by the addition of 10 μl of the NADH-/ATP-solution (4.29 mM NADH, 4.95 mM ATP, in HEPES-buffer*). The MTP was shaken for 5 sec., and then, the absorbance at 340 nm was monitored continuously in a MTP-reader (TECAN Spectro fluor plus) for the next 27 min (with a MTP-cycling time of 199 sec.). The final concentrations of the various components were as follows: 49.5 mM Hepes, pH 7.0, 1.49 mM PEP, 1.3 mM NADH, 49.5 mM KCl, 4.96 mM MgCl2, 1.5 mM Mg-ATP, 1.98 mM DTT, 2.04 U/ml pyruvate kinase, 2.06 U/ml lactate-dehydrogenase, 0.91% DMSO, 0.15 μg/well glucokinase, and test compounds in the range between 1 nM and 300 μM.
The change in the optical density (ΔOD340 nm) in the presence of the compound was expressed relative to the ΔOD340 nm, ctrl of the control incubation (in the presence of 2 mM glucose and 0.91% DMSO), taking into account the optical density of the blank sample (incubation in the absence of 2 mM glucose). For the determination of the half maximal effective concentration (EC50), the %−Ctrl-values were plotted in a semi-logarithmic graph against the conc. of the compound of interest. The data points were fitted to a sigmoid curve function (f(x)=((%−Ctrlmax%−Ctrlmin)/(1−(EC50/x**^n(Hill)))+%−Ctrlmin)) by a non-linear regression analysis.
* Hepes-buffer (50 mM Hepes, pH 7.0, 5 mM MgCl2, 50 mM KCl, 1.5 mM PEP, 0.1% BSA). DTT was added to the Hepes-buffer from a 200× stock solution (in Millipore H2O) freshly each day. The final concentration of DTT in the Hepes-buffer is 2 mM.

For `Cc1csc(Nc2ccc(Br)cn2)n1` [A1, (5-bromo-pyridine-2-yl)-(4-methyl-thiazole-2-yl)-amine], the “fold activation (human)” value [1] was “D (fold activation: 1.2-5 μM = D)” and the melting point was 241.5 to 242.6 °C.
In the case of `BrCc1csc(Nc2ccc(Br)cn2)n1` [A2, (4-bromomethyl-thiazole-2-yl)-(5-bromo-pyridine-2-yl)-amine], the EC50 [1] is reported as 1 to 10 µM and the “fold activation (human)” value [1] is reported as “D (fold activation: 1.2-5 μM = D)”.
In the case of `Brc1ccc(Nc2nc(Cn3ccnc3)cs2)nc1` [A3, (5-bromo-pyridine-2-yl)-(4-imidazole-1-ylmethyl-thiazole-2-yl)-amine], the EC50 [1] is reported as 1 to 10 µM and the “fold activation (human)” value [1] is reported as “D (fold activation: 1.2-5 μM = D)”.
With `CCOC(=O)c1csc(Nc2ccc(Br)cn2)n1` [A4, 2-(5-bromo-pyridine-2-ylamino)-thiazole-4-carboxylic acid ethyl ester] the “fold activation (human)” value [1] was “D (fold activation: 1.2-5 μM = D)” and the melting point was 299.8 to 300.8 °C.
For `CC(=O)OCc1csc(Nc2ccc(Br)cn2)n1` [A5, acetic acid 2-(5-bromo-pyridine-2-ylamino)-thiazole-4-ylmethyl ester], the EC50 [1] was 1 to 10 µM, the “fold activation (human)” value [1] was “D (fold activation: 1.2-5 μM = D)” and the melting point was 200.9 to 201.6 °C.
With `OCc1csc(Nc2ccc(Br)cn2)n1` [A6, [2-(5-bromo-pyridine-2-ylamino)-thiazole-4-yl]-methanol] the “fold activation (human)” value [1] was “D (fold activation: 1.2-5 μM = D)” and the melting point was 207 to 209 °C.
In the case of `NCCSCc1csc(Nc2ccc(Br)cn2)n1` [A7, [4-(2-amino-ethylsulfanylmethyl)-thiazole-2-yl]-(5-bromopyridine-2-yl)-amine], the EC50 [1] is reported as greater than 10 µM and the “fold activation (human)” value [1] is reported as “D (fold activation: 1.2-5 μM = D)”.
With `c1ccc(Oc2ccc(Nc3nccs3)nc2)cc1` [A8, (5-phenoxy-pyridine-2-yl)-thiazole-2-yl-amine] the EC50 [1] was greater than 10 µM, the “fold activation (human)” value [1] was “D (fold activation: 1.2-5 μM = D)” and the melting point was 161.4 to 162.4 °C.
With `CC(=O)OCc1csc(Nc2ccc(Oc3ccccc3)cn2)n1` [A9, acetic acid 2-(5-phenoxy-pyridine-2-ylamino)-thiazole-4-ylmethyl ester] the EC50 [1] was greater than 10 µM, the “fold activation (human)” value [1] was “D (fold activation: 1.2-5 μM = D)” and the melting point was 158.5 to 160.5 °C.
In the case of `OCc1csc(Nc2ccc(Oc3ccccc3)cn2)n1` [A10, [2-(5-phenoxy-pyridine-2-ylamino)-thiazole-4-yl]-methanol], the EC50 [1] is reported as 1 to 10 µM, the “fold activation (human)” value [1] is reported as “E (5-10 μM = E)” and the melting point is reported as 130 to 131 °C.
For `c1ccc(Sc2ccc(Nc3nccs3)nc2)cc1` [A12, (5-phenylsulfanyl-pyridine-2-yl)-thiazole-2-yl-amine], the EC50 [1] was greater than 10 µM and the “fold activation (human)” value [1] was “D (fold activation: 1.2-5 μM = D)”.
For `[O-][S+](c1ccccc1)c1ccc(Nc2nccs2)nc1` (centres unmarked) [A13, (5-phenylsulfinyl-pyridine-2-yl)-thiazole-2-yl-amine], the “fold activation (human)” value [1] was “D (fold activation: 1.2-5 μM = D)”.
In the case of `O=S(=O)(c1ccccc1)c1ccc(Nc2nccs2)nc1` [A14, (5-phenylsulfonyl-pyridine-2-yl)-thiazole-2-yl-amine], the EC50 [1] is reported as greater than 10 µM and the “fold activation (human)” value [1] is reported as “D (fold activation: 1.2-5 μM = D)”.
In the case of `COCCOc1cc(Oc2ccccc2)cnc1Nc1nccs1` [A20, [3-(2-methoxy-ethoxy)-5-phenoxy-pyridine-2-yl]-thiazole-2-yl-amine], the EC50 [1] is reported as 1 to 10 µM, the “fold activation (human)” value [1] is reported as “E (5-10 μM = E)” and the melting point is reported as 140.6 to 140.9 °C.
In the case of `c1ccc(Oc2cnc(Nc3nccs3)c(OC3CCCC3)c2)cc1` [A21, (3-cyclopentyloxy-5-phenoxy-pyridine-2-yl)-thiazole-2-yl-amine], the EC50 [1] is reported as 0.01 to 1 µM and the “fold activation (human)” value [1] is reported as “E (5-10 μM = E)”.
In the case of `CCCOc1ccc(Nc2ccn(C)n2)nc1` [A23, (1-methyl-1H-pyrazole-3-yl)-(5-propoxy-pyridine-2-yl)-amine], the “fold activation (human)” value [1] is reported as “D (fold activation: 1.2-5 μM = D)”.
In the case of `COCC(C)Oc1cc(Oc2ccccc2)cnc1Nc1nccs1` (centres unmarked) [A28, [3-(2-Methoxy-1-methyl-ethoxy)-5-phenoxy-pyridine-2-yl]-thiazole-2-yl-amine], the EC50 [1] is reported as 1 to 10 µM and the “fold activation (human)” value [1] is reported as “E (5-10 μM = E)”.
In the case of `c1ccc(Oc2cnc(Nc3nccs3)c(OCC3CCCC3)c2)cc1` [A29, (3-cyclopentylmethoxy-5-phenoxy-pyridine-2-yl)-thiazole-2-yl-amine], the EC50 [1] is reported as 0.01 to 1 µM and the “fold activation (human)” value [1] is reported as “D (fold activation: 1.2-5 μM = D)”.
In the case of `c1ccc(COc2ccc(Nc3nccs3)nc2)cc1` [A30, (5-benzyloxy-pyridine-2-yl)-thiazole-2-yl-amine], the “fold activation (human)” value [1] is reported as “D (fold activation: 1.2-5 μM = D)”.
For `COCCOc1cc(Oc2cccnc2)cnc1Nc1nccs1` [A31, [3-(2-methoxy-ethoxy)-5-(pyridine-3-yloxy)-pyridine-2-yl]-thiazole-2-yl-amine], the “fold activation (human)” value [1] was “E (5-10 μM = E)”.
With `COCCOc1cc(Oc2ccc(S(C)(=O)=O)cc2)cnc1Nc1nccs1` [A32, [5-(4-methanesulfonyl-phenoxy)-3-(2-methoxy-ethoxy)pyridine-2-yl]-thiazole-2-yl-amine] the EC50 [1] was 1 to 10 µM and the “fold activation (human)” value [1] was “E (5-10 μM = E)”.
With `CS(=O)(=O)c1ccc(Oc2ccc(Nc3ccccn3)nc2)cc1` [A94] the “fold activation (human)” value [1] was “E (5-10 μM = E)”.
For `COCCOc1cc(Oc2ccccc2)cnc1Nc1cnccn1` [A95], the “fold activation (human)” value [1] was “D (fold activation: 1.2-5 μM = D)”.
In the case of `COCCOc1cc(Oc2ccccc2)cnc1Nc1ccccn1` [A96], the “fold activation (human)” value [1] is reported as “D (fold activation: 1.2-5 μM = D)”.
For `COCCOc1cc(Oc2ccccc2)cnc1Nc1ccn(C)n1` [A97], the “fold activation (human)” value [1] was “E (5-10 μM = E)”.
